Laboratory results reported in article PMC3210067 (Nature chemical biology, 2011).
Values belong to the compound of their own block, whether it stands above or below them. Non-standard residues stand in square brackets, D forms with d. Residues, ends and D or L forms follow the SMILES beside them. NMeY = CN[C@@H](Cc1ccc(O)cc1)C(=O)O; NMeL = CN[C@@H](CC(C)C)C(=O)O; dNMeL = CN[C@H](CC(C)C)C(=O)O

Legend:
H/D exchange studies = type: physicochemical; settings: for H/D exchange of amide N-H (in words): CDCl3, 5% MeOH-d4/0.5% HOAc-d4
[1] = human liver microsomal stability; type: in vitro ADME; settings: liver microsomes, pH 7.4
[2] = rat liver microsomal stability; type: in vitro ADME; settings: liver microsomes, pH 7.4
human plasma stability = type: in vitro ADME; settings: pH 7.4
in vivo = settings: male, Wistar-Han, rat, po, 10 mg/kg
[3] = CDCl3, 5% CD3OD / 0.5% CD3CO2D, 297 K

H/D exchange of amide N-H (in words) (H/D exchange studies): exchanged with solvent over a few hours
SMILES: CC(C)C[C@@H]1NC(=O)[C@H](CC(C)C)NC(=O)[C@@H](CC(C)C)NC(=O)[C@H](Cc2ccc(O)cc2)NC(=O)[C@H]2CCCN2C(=O)[C@H](CC(C)C)NC1=O [compound 2] (cyclo(LLL[dP]Y[dL]))

SMILES: CC(C)C[C@@H]1C(=O)N(C)[C@@H](CC(C)C)C(=O)N(C)[C@@H](CC(C)C)C(=O)N(C)[C@@H](CC(C)C)C(=O)N2CCC[C@@H]2C(=O)N(C)[C@@H](Cc2ccc(O)cc2)C(=O)N1C [compound 6] (cyclo([NMeL][NMeL][NMeL][dP][NMeY][dNMeL]))
microsomal CLint at 1 µM [1]: 191 µL/min/mg | microsomal CLint at 1 µM [2]: 62.6 µL/min/mg | half-life at 1 µM (human plasma stability): > 6 h

SMILES: CC(C)C[C@@H]1C(=O)N(C)[C@@H](CC(C)C)C(=O)N(C)[C@@H](CC(C)C)C(=O)N2CCC[C@@H]2C(=O)N(C)[C@@H](Cc2ccc(O)cc2)C(=O)N(C)[C@@H](CC(C)C)C(=O)N1C [compound 5] (cyclo([NMeL][NMeL][dP][NMeY][NMeL][dNMeL]))
microsomal CLint at 1 µM [1]: > 320 µL/min/mg | microsomal CLint at 1 µM [2]: 317 µL/min/mg | half-life at 1 µM (human plasma stability): > 6 h

SMILES: CC(C)C[C@@H]1NC(=O)[C@H](CC(C)C)N(C)C(=O)[C@@H](CC(C)C)N(C)C(=O)[C@H](CO)NC(=O)[C@H](Cc2ccc(O)cc2)N(C)C(=O)[C@H]2CCCN2C1=O [3 L^1S] (cyclo(L[dP][NMeY]S[dNMeL][NMeL]))
microsomal CLint at 1 µM [1]: 54 µL/min/mg | microsomal CLint at 1 µM [2]: 98 µL/min/mg

SMILES: CC(C)C[C@@H]1NC(=O)[C@H](Cc2ccc(O)cc2)NC(=O)[C@H]2CCCN2C(=O)[C@H](CC(C)C)NC(=O)[C@H](CC(C)C)NC(=O)[C@@H](CC(C)C)NC1=O [compound 1, cyclo[Leu, D-Leu, Leu, Leu, D-Pro, Tyr]] (cyclo(LL[dP]YL[dL]))
H/D exchange of amide N-H (in words) (H/D exchange studies): exchanged within minutes or hours

SMILES: CC(C)C[C@@H]1NC(=O)[C@H](CC(C)C)N(C)C(=O)[C@@H](CC(C)C)N(C)C(=O)[C@H](Cc2ccc(O)cc2)N(C)C(=O)[C@H]2CCCN2C(=O)[C@H](CC(C)C)N(C)C1=O [compound 4] (cyclo(L[NMeL][dP][NMeY][dNMeL][NMeL]))
microsomal CLint at 1 µM [1]: > 320 µL/min/mg | H/D exchange of amide N-H (in words) (H/D exchange studies): negligible exchange over 24 h | microsomal CLint at 1 µM [2]: > 491 µL/min/mg | half-life at 1 µM (human plasma stability): > 6 h

SMILES: CC(C)C[C@@H]1NC(=O)[C@H](Cc2ccc(O)cc2)N(C)C(=O)[C@H]2CCCN2C(=O)[C@H](CC(C)C)NC(=O)[C@H](CC(C)C)N(C)C(=O)[C@@H](CC(C)C)N(C)C1=O [compound 3] (cyclo(L[dNMeL][NMeL]L[dP][NMeY]))
AUC (in vivo): 10.5 ng·h/mL | t1/2 (H-D exchange) NH (a) (H/D exchange studies; [3]): > 24 h | t1/2 (H-D exchange) NH (b) (H/D exchange studies; [3]): > 24 h | H/D exchange of amide N-H (in words) (H/D exchange studies): over a period of several days
